In PubChem BioAssay (NCI):
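Results reflect a 48-hour exposure of cells in 96-well plates to compound at five concentrations. GI50 is the concentration that inhibits growth by half. TGI: concentration producing complete growth inhibition.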

Assays:
Test in all cases: NCI tumour cell line growth inhibition, 48 h
MDA-MB-231 breast = test system: MDA-MB-231 breast
T-47D breast = test system: T-47D breast
MDA-N = test system: MDA-N
PC-3 prostate = test system: PC-3 prostate
DMS 114 small cell lung = test system: DMS 114 small cell lung
DMS 273 small cell lung = test system: DMS 273 small cell lung
RXF-631 renal = test system: RXF-631 renal
SNB-78 CNS = test system: SNB-78 CNS
XF 498 CNS = test system: XF 498 CNS

Row | Structure (SMILES) | TGI (MDA-MB-231 breast) | TGI (T-47D breast) | TGI (MDA-N) | TGI (PC-3 prostate) | TGI (DMS 114 small cell lung) | TGI (DMS 273 small cell lung) | TGI (RXF-631 renal) | TGI (SNB-78 CNS) | TGI (XF 498 CNS) | GI50 (MDA-MB-231 breast) | GI50 (T-47D breast) | GI50 (PC-3 prostate)
1 | COc1cc(C(=O)O)c([N+](=O)[O-])c(OC)c1OC | > 100 µM | > 100 µM | > 100 µM | > 100 µM |  |  |  |  |  |  |  | 
2 | Nc1nc(N)[n+]([O-])c(N)c1NCO | > 100 µM | > 100 µM | > 100 µM | > 100 µM |  |  |  |  |  |  |  | 
3 | CC(Cl)(/C=C/Cl)C(Cl)/C=C/C(Cl)(CCl)CBr (stereo unspecified) |  |  |  |  | 5.32 µM | 17.1 µM | 4.05 µM | 4.95 µM |  |  |  | 
4 | Cn1nc(-c2ccccc2NC(=O)C(F)(F)F)c(=O)n(C)c1=S |  |  |  |  | 29.5 µM | > 100 µM |  |  | 36.9 µM |  |  | 
5 | Cn1cc(-c2ccc(=O)n(Cc3cccc(-c4ncc(OCCN5CCOCC5)cn4)c3)n2)cn1 | > 100 µM | > 81.5 µM |  | > 100 µM |  |  |  |  |  | > 78000 nM | 20900 nM | 49100 nM
6 | C/C(=N\NC(=S)Nc1ccc(C(=O)O)cc1)c1ccccn1 |  |  |  |  | > 100 µM | 51.8 µM |  | > 100 µM | 63.7 µM |  |  | 
7 | COC(=O)c1cnc(=O)n(C2CC(O)C(CO)O2)c1 (stereo unspecified) | > 100 µM | > 100 µM |  | > 100 µM |  |  |  |  |  | > 100000 nM | > 100000 nM | 811 nM
8 | Cc1cc(C)nc(NS(=O)(=O)c2ccc(Nc3c4ccccc4nc4c(C(=O)Nc5ccc(S(N)(=O)=O)cc5)cccc34)cc2)n1 |  |  |  |  | > 100 µM | > 100 µM |  | > 100 µM | > 100 µM |  |  | 
9 | COc1cc(-c2cc(C(=O)N3CCN(C(=O)c4ccccc4NCc4ccco4)CC3)nc3cc(-c4ccccc4)nn23)cc(OC)c1OC | > 100 µM | > 100 µM |  | > 100 µM |  |  |  |  |  | 5110 nM | 2940 nM | 2200 nM
10 | Cc1cc2c(C)c3cc(C)c(N)cc3nc2cc1N | 3.48 µM | 5.28 µM |  | 7.06 µM |  |  |  |  |  | 1090 nM | 754 nM | 1110 nM
11 | CCCCCCCCCCCCc1ccc(C(=O)/C=C/C(=O)O)cc1 | 4.5 µM | 4.11 µM |  | 26.6 µM |  |  |  |  |  | 1850 nM | 1670 nM | 8120 nM
12 | O=C1C2=C(c3ccccc31)C(c1cccc(Cl)c1)NC(=S)N2 (stereo unspecified) |  |  |  |  | > 100 µM | > 100 µM |  |  | > 100 µM |  |  | 
13 | CCOP(=O)(OCC)C1C(=O)O[C@H]2CCCC[C@@H]12 (stereo partly specified) |  |  |  |  | > 100 µM | > 100 µM |  | > 100 µM | > 100 µM |  |  | 
14 | O=[N+]([O-])c1ccc(Sc2ncccn2)c([N+](=O)[O-])c1 | 17.1 µM | 15 µM |  | 15.1 µM |  |  |  |  |  | 5310 nM | 3010 nM | 2130 nM
15 | NC(N)=NC(CC(=O)O)c1ccccc1 (stereo unspecified) | > 100 µM | > 100 µM | > 100 µM | > 100 µM |  |  |  |  |  |  |  | 
16 | Nc1cccc2c1C(=O)N(C1CCC(=O)NC1=O)C2=O (stereo unspecified) | > 100 µM | > 100 µM |  | > 100 µM |  |  |  |  |  | > 100000 nM | > 100000 nM | > 100000 nM
17 | C[C@H]1[C@H](OC(=O)CCC(=O)O)O[C@@H]2O[C@]3(C)CC[C@H]4[C@H](C)CC[C@@H]1[C@@]24OO3 | 35.4 µM | 22.7 µM |  | > 100 µM |  |  |  |  |  | 2340 nM | 400 nM | 88.6 nM

Row | Structure (SMILES) | TGI (MDA-MB-231 breast) | TGI (T-47D breast) | TGI (MDA-N) | TGI (PC-3 prostate) | TGI (DMS 114 small cell lung) | TGI (DMS 273 small cell lung) | TGI (RXF-631 renal) | TGI (SNB-78 CNS) | TGI (XF 498 CNS) | GI50 (MDA-MB-231 breast) | GI50 (T-47D breast) | GI50 (PC-3 prostate)
18 | COc1ccccc1C(=O)/C=C/c1cc2cccc(OC)c2[nH]c1=O | 1.79 µM | 12.8 µM |  | 2.27 µM |  |  |  |  |  | 151 nM | 626 nM | 50.3 nM
19 | COc1ccc(-c2cc(-c3ccc(Nc4nc(Nc5ccc(Cl)cc5)nc(Nc5ccc(Cl)cc5)n4)cc3)nc(N)c2C#N)cc1 | 3.23 µM | 5.39 µM |  |  |  |  |  |  |  | 1540 nM | 894 nM | 982 nM
20 | CCCCCCC(=O)C/C(CCC(=O)N(Cc1ccccc1)Cc1ccccc1)=N\Nc1ccc([N+](=O)[O-])cc1[N+](=O)[O-] |  |  |  |  | 40.6 µM | > 100 µM |  | > 100 µM |  |  |  | 
21 | O=C(Nc1n[nH]c2nc(-c3ccco3)c(Br)cc12)C1CC1 | > 25 µM | > 25 µM |  | > 25 µM |  |  |  |  |  | > 25000 nM | > 25000 nM | > 25000 nM
22 | COc1cccc(NC(=O)c2sc3nc4c(cc3c2N)CCCC4)c1 | 26.4 µM | > 100 µM |  | > 100 µM |  |  |  |  |  | 3880 nM | 529 nM | 504 nM
23 | COc1cc(C2C(Cl)C(=O)N2n2cnc3ccccc3c2=O)cc(OC)c1OC (stereo unspecified) |  |  |  |  | > 100 µM | > 100 µM |  | > 100 µM | > 100 µM |  |  | 
24 | COc1ccc(-c2oc3cc(O)c(OC)c(O)c3c(=O)c2OC2OC(CO)C(O)C(O)C2O)cc1 (stereo unspecified) |  |  |  |  | > 100 µM | > 100 µM |  | > 100 µM |  |  |  | 
25 | O=C(c1cccs1)c1c(C(F)(F)F)n([O-])c2ccc(C(F)(F)F)cc2[n+]1=O | 0.357 µM | 1.43 µM |  | 0.259 µM |  |  |  |  |  | 189 nM | 510 nM | 118 nM
26 | N#Cc1ccccc1NC(=O)C(=O)C(C(=O)c1ccccc1-c1ccccc1)C1OC(=O)c2ccccc21 (stereo unspecified) |  |  |  |  | 41.6 µM |  |  | 59.9 µM | 33.6 µM |  |  | 
27 | CC1(C)N=C(N)N=C(N)N1c1cccc(/C=C/C=C/c2cccc([N+](=O)[O-])c2)c1 | 24.4 µM |  |  | 11.8 µM |  |  |  |  |  | 10300 nM |  | 448 nM
28 | FC(F)(F)P1C2C=CC(CC2)C1(F)F (stereo unspecified) |  |  |  |  | > 100 µM | > 100 µM |  | > 100 µM | > 100 µM |  |  | 
29 | CCOC(=O)Cc1c(Cc2[nH]c(C(=O)OCc3ccccc3)c(CC(=O)OCC)c2CC(=O)OCC)[nH]c(C(=O)OCc2ccccc2)c1CC(=O)OCC |  |  |  |  | > 100 µM |  |  | > 100 µM |  |  |  | 
30 | Cc1ccc(S(=O)(=O)N2CCCSCCSCCCSCC2)cc1 | > 100 µM | > 100 µM |  | > 100 µM |  |  |  |  |  |  |  | 
31 | O=C1C2CC(Cl)C(SSC3CC4C(=O)N(SC(Cl)(Cl)C(Cl)Cl)C(=O)C4CC3Cl)CC2C(=O)N1SC(Cl)(Cl)C(Cl)Cl (stereo unspecified) | 3.16 µM | 7.18 µM | 6.71 µM | 2.79 µM |  |  |  |  |  |  |  | 
32 | Cc1ccc(S(=O)(=O)N/N=C/C(Br)=C(/Br)C(=O)O)cc1 | 36 µM | 23.3 µM | 18.8 µM | 29.3 µM |  |  |  |  |  |  |  | 
33 | Cc1ccc(S(=O)(=O)NC(CCC(=O)Nc2ccc(Cl)cc2)C(=O)Nc2ccc(Cl)cc2)cc1 (stereo unspecified) | 4.23 µM | 2.64 µM |  | 6.33 µM |  |  |  |  |  | 263 nM | 151 nM | 396 nM
